Structures can show the parent of a compound that is named as a salt. Marks after values point to notes of the source that are not given here.
Tests used:
Assay type in all cases: in vivo, rat
[1] = test system: animals with hypobaric hypoxia-induced amnesia; experiment: Open field spontaneous motor activity, hypobaric hypoxia; conditions: vs intact controls and saline-treated hypoxic animals
Protocol: (§1) Male rats of the Sprague-Dawley strain (purchased from Charles River, Italy) weighing 280±20 g were used throughout all experiments. The animals were housed two-three to a cage under a constant light-dark cycle (lights on between 8.00 and 20.00) at 21° C. Commercial food and tap water were available ad libitum. All animals were used only once in the behavioral experiments.
(§2) Ropinirole (ropinirole hydrochloride, SmithKline Beecham, Italy) and dihydroergocryptine (DHECP) α-dihydroergocryptine methanesulfonate, Monsanto, Italy) were dissolved in saline and injected subcutaneously (s.c.) at the dose of 0.5 and 1 mg/kg/day for 7 days. In the experiments with kainate-induced convulsions, ropinirole or DHECP were injected intravenously (i.v.) 30 min prior, and again at the same time of the intracerebroventricular (i.c.v) injection on kainic acid; Control animals received an injection of saline alone with the same procedure.
Spontaneous motor activity was scored in a circular open field arena as described by Weijnen and Slangen, Pituitary, Adrenal and the Brain, pp221-235 (1982). Animals were put inside a circular lit-up arena, with the bottom divided into 27 areas of equal size.
(§3) In the first experiment, the effects of ropinirole or DHECP were studied on amnesia induced by hypobaric hypoxia in rats. After a 7-day pretreatment with ropinirole, DHECP or saline, a group of animals was subjected to acute hypobaric hypoxia by means of a hypobaric chamber (Chantiers et Ateliers de Bretagne, France) causing depression to 300 mmHg (Boismare et al., Gerentology, 24, 6-13 (1978)). After 3 min in the chamber, the animals were removed and admitted for behavioral testing. Intact control rats were also introduced into the chamber but not subjected to hypobaric hypoxia.

[2] = test system: animals with hypobaric hypoxia-induced amnesia; experiment: Step-through passive avoidance, hypobaric hypoxia-induced amnesia; conditions: for Latency: hypobaric hypoxia, median latency to re-enter dark box, max 300 s
Protocol: as §1, §2
Passive avoidance behaviour was studied in a step-through type of passive avoidance situation (Ader et al., Psycon Sci, 26, 125-128 (1972)). Briefly the rats were adapted to the apparatus consisting of a large dark compartment equipped with a grid floor and a mesh-covered elevated runway attached to the front centre of the dark chamber. Adaptation training was followed by a single trial in which the rats were placed on the elevated platform and allowed to enter the dark box. Three such trials were given on the next day with an intertrial interval of 5 min after the trial. The rats received a single 2-s unavoidable scrambled foot-shock (0.20 mA) immediately after entering the dark compartment. Retention of the response was tested 24 h after the learning trial. The rats were placed on the elevated runway and the latency to re-enter the shock compartment was recorded up to a maximum of 300 s.
as §3

[3] = test system: animals with hypobaric hypoxia-induced amnesia; experiment: Shuttle-box active avoidance acquisition, hypobaric hypoxia-induced amnesia; conditions: for Learners / CARs: hypobaric hypoxia; for CARs: mean ± S.E.M.
Protocol: as §1, §2
Shuttle-box active avoidance acquisition was studied in a single session test as described in Bohus and De Wied, Endogenous Peptides and Learning and Memory Processes. Academic Press, New York, pp59-775, (1981). Briefly, the rats were trained to avoid the unconditioned stimulus (US) of a scrambled electrical foot-shock (0.20 mA) delivered through the grid floor. The conditioned stimulus (CS) was a buzzer presented for 3 s prior to the US. If no escape occurred within 20 s of CS/US presentation, the shock was terminated. A maximum of 30 conditioning trials were given with a variable intertrial interval averaging 60 s. The learning criterion was five consecutive conditioned avoidance responses (CARs). For those animals that reached the criterion in less than 30 trials, the remaining trials until 30 were considered as CARs. Indexes of avoidance behaviour were the total number of CARs and the percent number of learners per group.
as §3

kainate-induced epilepsy = experiment: Kainate-induced convulsions (epilepsy); conditions: for Latency (s) to the first tonic-clonic seizure / Seizures (total number) / Mortality (%): kainic acid 10 μg/2 μl i.c.v.; for Latency (s) to the first tonic-clonic seizure / Seizures (total number): 30-min observation, mean ± S.E.M.; for Mortality (%): checked 2 h after convulsive agent
Protocol: as §1
Another group of animals were implanted under ether anaesthesia with a permanent plastic cannula in the right lateral ventricle (foramen interventriculare, Konig and Klippel A 6360) with another cannula into the right jugular vein. These animals were sacrificed at the end of behavioral procedure and the brains were utilized for biochemical analysis. Data were taken from animals showing no abnormalities at the postmortem examination. All experiments were carried out according to the European Community Council Directive 86/609/ECC and efforts were made to minimize animal suffering and to reduce the number of animals used.
as §2, with “[…],” for “ropinirole or DHECP were injected intravenously (i.v.) 30 min prior,”
Kainic acid (Sigma, USA) was dissolved in saline and injected i.c.v. at the dose of 10 μg/2 μi.
Over a 30-min observation, the following items were recorded per each animal receiving an i.c.v. injection of kainic acid: latency in s to the first tonic-clonic seizure; total number of seizures, percent rate of mortality (checked 2 h after the administration of the convulsive agent).
Behavioral scoring of kainate-induced convulsions was started immediately after i.c.v. injection of the drug and proceeded for 30 min. Ropinirole, DHECP or saline were injected twice, 30 min prior and, again, at the same time of the i.c.v. administration of kainic acid.

[4] = hypobaric hypoxia-induced amnesia, summary of Table 1
[5] = kainate-induced seizures, summary of Table 3

## CCCN(CCC)CCc1cccc2c1CC(=O)N2 [ROP, 4-[2-(di-n-propylamino)ethyl]-1,3-dihydro-2H-indolin-2-one hydrochloride]
[1]
  ambulation and rearing (effect of treatment, in words): higher
[2]; [4]
  latency to re-enter the dark box (effect of treatment, in words): increase
[2]; 0.5 mg/kg/day s.c. for 7 days
  Latency: 47^e,f
[2]; 1 mg/kg/day s.c. for 7 days
  Latency: 65^f
[3]; [4]
  number of CARs and percent number of learners in the shuttle-box (effect of treatment, in words): increase
[3]; 0.5 mg/kg/day s.c. for 7 days
  Learners: 60^d percent
  CARs: 16.8 ± 1.3^b
[3]; 1 mg/kg/day s.c. for 7 days
  Learners: 70^d percent
  CARs: 17.2 ± 1.5^b
kainate-induced epilepsy; [5]
  latency to the first tonic-clonic seizure (effect of treatment, in words): did not modify
  percent mortality rate (effect of treatment, in words): significant decrease
  total number of kainate-induced seizures (effect of treatment, in words): did not modify
kainate-induced epilepsy; 0.5 mg/kg injected s.c. twice (30 min prior and at kainic acid)
  Latency (s) to the first tonic-clonic seizure: 69.4 ± 8.9 s
kainate-induced epilepsy; 0.5 mg/kg injected s.c. twice
  Seizures (total number): 7.1 ± 0.9
  Mortality (%): 20^a %
kainate-induced epilepsy; 1 mg/kg injected s.c. twice (30 min prior and at kainic acid)
  Latency (s) to the first tonic-clonic seizure: 65.4 ± 6.9 s
kainate-induced epilepsy; 1 mg/kg injected s.c. twice
  Seizures (total number): 6.9 ± 0.9
  Mortality (%): 10^a %
